Measured values: patent publication US20260184766A1 (priority 2022, published 2026)

How the values were obtained:
[1] = tested on: pseudotyped virus carrying SARS-CoV-2 (Wuhan-Hu-1) wild-type (WT) spike protein; assay type: cell-based; conditions: for EC50: read-out: Virus Neutralization Pseudovirus (nM) Wild-type
[2] = tested on: pseudotyped virus carrying S protein of a SARS-CoV-2 delta lineage virus; assay type: cell-based; conditions: read-out: Virus Neutralization Pseudovirus (nM) Delta
[3] = target: biotinylated RBD (Wuhan-Hu-1) (Severe acute respiratory syndrome coronavirus 2, UniProt P0DTC2)
biotinylated RBD = biotinylated RBD (Severe acute respiratory syndrome coronavirus 2, UniProt P0DTC2)

## TCPDGYEHTCGCIGGCGCKRSACIGALCCQASLGGWLSD [2G3 Knob]
[1]
  EC50: 1.3 ± 0.3 nM
[2]
  EC50: 71.3 ± 37.2 nM

## GGSCPDGYEHTCGCIGGCGCKRSACIGALCCQASLGGWLSD [G3 NTRUNC5]
[3]
  binding of coated CDR3-knob to biotinylated RBD, in words: did not correlate with any reduction in binding activity

## HWTCPDGYEHTCGCIGGCGCKRSACIGALCCQASLGGWLSDSF [2G3 knob HWSF]
[1]
  EC50: 0.15 ± 0.03 nM
[2]
  EC50: 21.2 ± 22.9 nM

## EGDKTCPDGYEHTCGCIGGCGCKRSACIGALCCQASLGGWLSDGETYTYEF [G3 Knob]
[1]
  neutralization potency of CDR3-knob only antibody, in words: subnanomolar potency
[3]
  RBD binding relative to reference anti-spike protein antibody CR3022: increased
  binding of coated CDR3-knob to biotinylated RBD, in words: showed binding
Biotinylated RBD
  binding to RBD after heat and SDS treatment: maintained binding

## GGSEGDKTCPDGYEHTCGCIGGCGCKRSACIGALCCQASLGGWL [G3 TRUNC3A]
[3]
  binding of coated CDR3-knob to biotinylated RBD, in words: reduced binding

## ISTCPDGYEHTCGCIGGCGCKRSACIGALCCQASLGGWLSDTV [2G3 knob ISTV]
[1]
  EC50: 0.12 ± 0.03 nM
[2]
  EC50: 56 ± 7.02 nM

## GGSEGDKTCPDGYEHTCGCIGGCGCKRSACIGALCCQASLGGW [G3 TRUNC3B]
[3]
  binding of coated CDR3-knob to biotinylated RBD, in words: reduced binding
